Test results taken from patent publication US11350634B2, “Method for preparing biopesticide preparation for preventing and controlling Solenopsis invicta” (GUANGDONG INSTITUTE OF APPLIED […], priority 2017, dated 2022).

What was measured:
[1] = system: Solenopsis invicta worker ants; assay: Laboratory virulence test of the combination of Beauveria bassiana and sodium chloride (Embodiment 1 method); assay type: in vivo; conditions: for synergism / effect on the pesticidal effect of Beauveria bassiana: salt added to Beauveria bassiana solution instead of sodium chloride, Embodiment 1 test
Protocol: In the laboratory virulence test, 5 g of Beauveria bassiana powder formulation was dissolved in 1 L of water and mixed well to give a Beauveria bassiana solution. The used Beauveria bassiana powder formulation contained 20 billion/g of Beauveria bassiana spores. 9 Beauveria bassiana solutions, 100 mL each, were taken from the IL Beauveria bassiana solution, and respectively added with NaCl so that NaCl concentrations in the 9 Beauveria bassiana solutions were: 0 mmol/L, 25 mmol/L, 75 mmol/L, 100 mmol/L, 125 mmol/L, 150 mmol/L, 200 mmol/L, 250 mmol/L, and 300 mmol/L, and thereby Beauveria bassiana/sodium chloride aqueous dispersions were obtained, wherein the Beauveria bassiana spores were present in a concentration of 1×10^8/mL.
The Beauveria bassiana solution, the Beauveria bassiana/sodium chloride aqueous solution, a sodium chloride solution (125 mmol/L), and sterile water were respectively tested for virulence against healthy Solenopsis invicta worker ants, with 3 replicates for each treatment, 1 petri dish in each replicate, and 100 Solenopsis invicta worker ants in each petri dish. […] Data statistical analysis was performed using SPSS 13.0 software, significance testing between samples was performed using the Duncan's method, wherein different lowercase letters indicate a significant difference (P<0.05) in cumulative mortality of the treated Solenopsis invicta.

[2] = system: Solenopsis invicta worker ants; assay: Laboratory virulence test of the Beauveria bassiana/sodium chloride aqueous dispersion of water dispersible granule formulation (with adjuvants); assay type: in vivo; conditions: worker ants dipped about 5 seconds, 96 hours after treatment, 1×10^8/mL spores, NaCl alone 125 mmol/L, FIG. 2
Text: A totally 30 g of Beauveria bassiana powder formulation and sodium chloride (wherein a mass ratio of the Beauveria bassiana powder formulation to sodium chloride included 5:1.46, 5:4.38; 5:5.84, 5:7.30, 5:8.77, 5:11.69, 5:14.61 g, and 5:17.53, and the Beauveria bassiana powder formulation contained 20 billion Beauveria bassiana spores per gram), 8 g of wetting agent butylnaphtalenesulfonic acid sodium salt, 18 g of dispersant sodium lignosulfonate, 5 g of disintegrant calcium chloride, 2 g of stabilizer disodium hydrogen phosphate, 5 g of binder sodium polyacrylate, and 32 g of carrier diatomite, were weighed out and mixed according to a method for preparing a water dispersible granule formulation (1. The raw materials were mixed evenly according to the formula. 2. The materials were ground using a sand mill after mixed evenly, and subjected to spray granulation after determined to be acceptable. 3. The products were screened using a vibrating screen after the spray granulation, products with unacceptable appearance were returned to the sand mill to be ground again, and products with acceptable appearance were further subjected to quality inspection wherein products with unacceptable quality were also returned to the sand mill to be ground again. 4. Products with acceptable quality were packaged. 5. […]

| SMILES | 96 h cumulative mortality / pesticidal effect ([1]; worker ants dipped about 5 seconds, 96 hours after treatment, 1×10^8/mL spores, NaCl alone 125 mmol/L, no adjuvants, FIG. 1) | 96 h cumulative mortality / pesticidal effect [2] | synergism / effect on the pesticidal effect of Beauveria bassiana [1] |
| --- | --- | --- | --- |
| [Cl-].[Na+] [NaCl, sodium chloride] | no killing effect | no killing effect |  |
| [Cl-].[K+] [potassium chloride] |  |  | no significant difference |
| [Cl][Fe]([Cl])[Cl] [ferric chloride] |  |  | no significant difference |
| [Ca+2].[Cl-].[Cl-] [calcium chloride] |  |  | no significant difference |
| [Cl-].[Cl-].[Mg+2] [magnesium chloride] |  |  | no significant difference |
